The nature of series [1]: Bioavailability in male rats. In kind it is in vivo. The conditions noted are these: rat, plasma, oral, intravenous 1 or 3 mg/kg, peroral 30 mg/kg, n=3, read-out: bioavailability (BA). As for the experimental part: (§1) A test compound was administered to male rats intravenously (1 or 3 mg/kg) or perorally (30 mg/kg), and to male beagles intravenously or perorally (3 mg/kg). After administration, blood was collected at designated times, to thereby obtain plasma samples.

The subject of another series is beagles. Put plainly: Toxicity test: single oral administration to dogs. Type of series: in vivo. As to conditions: male beagles, single peroral. As to the method: An encapsulated test drug was forcedly administered to beagles, and acute toxicity of the drug was studied.
Compound of Example 34a was singly perorally administered to male beagles at a dose of 30 and 100 mg/kg. […] General conditions of the beagles were observed, and hematologic and blood biochemical tests were carried out.

Another series deals with T1, human GHS-R1a (Homo sapiens, UniProt Q92847).
T1 construct: expressed in transfected cells
The series is described as follows: Agonistic activity by use of a cell line stably expressing human GHS-R1a (intracellular calcium increase). Type of series: cell-based. As to conditions: hGHS-R1a/CHO cells, percent increase in intracellular calcium vs 100 nM ghrelin; read-out: GHS-R agonistic activity (EC50: nM). As for the experimental part: CHO-K1 cells were transfected with human GHS-R1a genes, to thereby provide cells stably expressing GHS-R1a (hGHS-R1a/CHO), and the agonistic activity of each compound was evaluated by use of the cells based on percent increase in intracellular calcium as an index.
The hGHS-R1a/CHO cells were inoculated at 6×10^4 cells/well in a 96-well plate (Clear bottom/Black plate, product of Corning), and cultured in Ham's F12 medium containing 10% fetal bovine serum at 37° C. and 5% CO2 for 18 hours. After culture, the medium was removed, and then the hGHS-R1a/CHO cells were cultured for two hours in a Hanks' balanced salt solution/HEPES (HBSS/HEPES, 100 μL) containing a calcium fluorescent indicator (4 μM Fluo-3AM, product of Dojin), 2 mM Probenecid, 0.1% Pluronic F-127, and 0.1% BSA, whereby the indicator was incorporated into the cells. After washing the cells, HBSS/HEPES (175 μL/well) containing 2 mM Probenecid and 0.1% BSA was added to the plate, and the fluorescence before and after addition of each test compound was determined by means of FLEXstation (Ex: 485 nm, Em: 525 nm, product of Molecular Devices). Each test compound was multi-fold diluted with dimethyl sulfoxide and then diluted with HBSS/HEPES containing 2 mM Probenecid, 0.04% Pluronic F-127, and 0.1% BSA, to thereby attain a final concentration of interest. The thus-diluted solution (25 μL/well) was added to the wells.
Agonistic activity(%)=(A−B)/(C−D)×100
A: Fluorescence intensity after addition of test compound
B: Fluorescence intensity before addition of test compound
C: Fluorescence intensity after addition of 100 nM ghrelin
D: Fluorescence intensity before addition of ghrelin
(A change in cytosolic calcium serves as a functional read-out for many receptors and channels.)

A short description of series [2]: Distribution in the brain (brain-to-plasma partition coefficient). As to conditions: rat, male rats, intravenous bolus then constant-rate infusion, steady state. Type of series: in vivo. As for the experimental part: Under anesthesia, a test drug was intravenously administered to male rats (1 to 4 mg/kg) and then intravenously administered (14 to 95 μg/kg) at a constant rate. At two hours after starting the infusion, when a steady state was thought to have been reached, the whole blood was collected from each rat and the brain was excised. The concentrations of test drug in brain samples and plasma samples were determined using LC-MS/MS, and the brain-to-plasma partition coefficient (Kp value) was calculated (n=6 or 9).

Series [3] is described as follows: Bioavailability in male beagles. Type of series: in vivo. As to conditions: beagle, dog, plasma, po; male beagles (dogs), intravenous or peroral 3 mg/kg, n=3; read-out: bioavailability (BA). As for the experimental part:
as §1

In the next series the target is T2, CYP3A4 (Homo sapiens, UniProt P08684).
T2 construct: determined by use of human liver microsomes based on the midazolam hydroxylation activity as an index; from tissue; host or cells: human liver microsomes
Put plainly: CYP3A4 inhibitory activity, human liver microsomes, midazolam hydroxylation. Type of series: in vitro ADME. As to the method:
The in vitro CYP3A4 inhibitory activity was determined by use of human liver microsomes based on the midazolam hydroxylation activity as an index, and the Ki values were calculated.

Series [4] has as its system model rats with IL-1β-induced cachexia. The series is described as follows: Improvement of cachexia induced by IL-1β. The conditions noted are these: SD rats, rmIL-1β into cerebral ventricle, peroral 100 mg/kg. Type of series: in vivo. From the text: By use of model rats with IL-1β-induced cachexia, the effects of a test compound on ameliorating reduction in body weight and in food intake were examined.
SD rats (male, 8-week old, 270 to 340 g, Japan Charles River) were conditioned in a cage (one rat/cage), and were allowed water and a diet (CRF-1, product of Oriental Yeast Co., Ltd.) ad libitum. The illumination conditions employed in the house were as follows: 10:30 to 22:30 (dark) and 22:30 to 10:30 (light).
An osmotic pump (Mini-Osmotic Pump Model 2001, product of ALZET, filled with saline) was connected to a canula, and the canula was inserted into the cerebral ventricle of a rat. The rats obtained were conditioned for three days, and the osmotic pump was changed to another osmotic pump filled with recombinant mouse IL-1β (rmIL-1β). By means of the pump, rmIL-1β was continuously injected into the cerebral ventricle ([…]), to thereby induce cachexia. Two days after starting of injection of IL-1β, a test compound dissolved in 0.5% methylcellulose solution was perorally administered to each rat just before switching-off the light. During the period of administration of the test compound, the body weight and the food intake were measured every 24 hours.

Where a name gives a salt, the structure may show the parent alone.

T1 sequence (Q92847 whole entry): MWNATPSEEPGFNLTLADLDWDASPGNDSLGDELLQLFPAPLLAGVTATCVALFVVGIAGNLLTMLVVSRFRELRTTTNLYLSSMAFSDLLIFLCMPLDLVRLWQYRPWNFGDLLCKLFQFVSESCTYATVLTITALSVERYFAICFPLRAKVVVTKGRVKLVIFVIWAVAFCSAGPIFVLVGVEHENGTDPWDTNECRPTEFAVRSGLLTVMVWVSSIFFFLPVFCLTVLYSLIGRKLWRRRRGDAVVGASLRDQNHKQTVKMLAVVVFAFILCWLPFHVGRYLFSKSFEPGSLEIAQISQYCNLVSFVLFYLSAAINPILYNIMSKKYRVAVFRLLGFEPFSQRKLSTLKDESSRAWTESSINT
T2 sequence (P08684 whole entry): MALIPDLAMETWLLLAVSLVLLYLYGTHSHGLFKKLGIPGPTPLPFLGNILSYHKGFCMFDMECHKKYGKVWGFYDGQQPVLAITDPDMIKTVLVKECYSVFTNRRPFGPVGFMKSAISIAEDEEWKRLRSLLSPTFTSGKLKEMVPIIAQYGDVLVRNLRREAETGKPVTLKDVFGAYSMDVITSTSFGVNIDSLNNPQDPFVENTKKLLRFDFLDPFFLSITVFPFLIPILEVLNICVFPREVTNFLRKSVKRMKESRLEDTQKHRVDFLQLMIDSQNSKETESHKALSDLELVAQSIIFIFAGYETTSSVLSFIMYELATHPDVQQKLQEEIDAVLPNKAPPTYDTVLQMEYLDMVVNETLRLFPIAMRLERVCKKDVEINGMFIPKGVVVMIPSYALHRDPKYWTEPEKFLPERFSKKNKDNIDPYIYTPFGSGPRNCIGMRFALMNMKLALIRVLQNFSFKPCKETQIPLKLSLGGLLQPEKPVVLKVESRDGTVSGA

Broadly, the bioavailability is dose-corrected exposure relative to a reference, in per cent. What is called EC50 is the concentration at which the effect is half-maximal. For orientation: Kp means tissue or fluid exposure divided by exposure in the circulation. As for `CN(C)N(C)C(=O)[C@@]1(Cc2ccccc2)CCCN(C(=O)[C@@H](Cc2c[nH]c3ccccc23)NC(=O)C(C)(C)N)C1` [Anamorelin hydrochloride, anamorelin hydrochloride, reference compound], the bioavailability in series [1] was found to be 21%; in series [3], 19%. Moreover, the “acute toxicity, general conditions” value with beagles (30 mg/kg) is “serious anomalous disorders in general conditions such as vomiting, infrequent pulse, tremble, and disorders in walking”. Besides, at human GHS-R1a, the EC50 was determined as 0.15 nM. In addition, in series [2], the Kp at 2 h came to 0.42.

Broadly, the Ki is a measure of affinity in units of concentration, obtained from inhibition or displacement. As for `CC(C)C[C@@H](NC(=O)C(C)(C)N)C(=O)NC1Cc2cccc(N3CCCC3=O)c2N(Cc2ccsc2)C1=O` (stereo partly drawn) [Example 34a, (2R)-2-(2-amino-2-methylpropanamido)-4-methyl-N-[2-oxo-8-(2-oxopyrrolidin-1-yl)-1-(thiophen-3-ylmethyl)-1,2,3,4-tetrahydroquinolin-3-yl]pentanamide hydrochloride], in series [1], the bioavailability amounted to 35%. For the same compound, in the series on beagles (maximum dose 100 mg/kg), the “acute toxicity, general conditions” value was “only slight vomiting”. Moreover, the EC50 on human GHS-R1a is 0.38 nM. Besides, the Kp at 2 h in series [2] stood at 0.06. In series [3], the bioavailability is 84%. Also, the affinity at CYP3A4 corresponds to a Ki of 86000 nM. Besides, in series [4], the “reduction in body weight caused by IL-1β” value was “significantly suppressed” and the “reduction in food intake caused by IL-1β” value is given as “significantly suppressed”.

`CN(C)c1cccc2c1N(Cc1ccccn1)C(=O)C(NC(=O)[C@H](NC(=O)C(C)(C)N)c1ccccc1)C2` (stereo partly drawn) [Example 41, 2-Amino-N-((1R)-2-(8-(dimethylamino)-2-oxo-1-(pyridin-2-ylmethyl)-1,2,3,4-tetrahydroquinolin-3-ylamino)-2-oxo-1-phenylethyl)-2-methylpropanamide hydrochloride]: the EC50 at human GHS-R1a is 11.3 nM.

`CCN(CC)c1cccc2c1N(Cc1ccccn1)C(=O)C(NC(=O)[C@@H](CC(C)C)NC(=O)CC(C)(C)N)C2` (stereo partly drawn) [Example 47, (2R)-2-(3-Amino-3-methylbutanamido)-N-[8-(diethylamino)-2-oxo-1-(pyridin-2-ylmethyl)-1,2,3,4-tetrahydroquinolin-3-yl]-4-methylpentanamide hydrochloride]: the EC50 on human GHS-R1a is 18.2 nM.

Turning to `CC(C)C[C@@H](NC(=O)C(C)(C)N)C(=O)NC1Cc2cccc(N3C(=O)CCC3O)c2N(Cc2ccsc2)C1=O` (stereo partly drawn) [Example 66, (2R)-2-(2-amino-2-methylpropanamido)-N-(8-(2-hydroxy-5-oxopyrrolidin-1-yl)-2-oxo-1-(thiophen-3-ylmethyl)-1,2,3,4-tetrahydroquinolin-3-yl)-4-methylpentanamide], the EC50 on human GHS-R1a turned out to be 0.45 nM.

The record behind these values is patent US8501772B2, “3,8-diaminotetrahydroquinoline derivative” (Zeria Pharmaceutical Co., Ltd., priority 2008, dated 2013).
